Counter-ions that a name gives are not always drawn. Some results are limits rather than exact numbers.

T1 sequence (Q9Y2I7 whole entry): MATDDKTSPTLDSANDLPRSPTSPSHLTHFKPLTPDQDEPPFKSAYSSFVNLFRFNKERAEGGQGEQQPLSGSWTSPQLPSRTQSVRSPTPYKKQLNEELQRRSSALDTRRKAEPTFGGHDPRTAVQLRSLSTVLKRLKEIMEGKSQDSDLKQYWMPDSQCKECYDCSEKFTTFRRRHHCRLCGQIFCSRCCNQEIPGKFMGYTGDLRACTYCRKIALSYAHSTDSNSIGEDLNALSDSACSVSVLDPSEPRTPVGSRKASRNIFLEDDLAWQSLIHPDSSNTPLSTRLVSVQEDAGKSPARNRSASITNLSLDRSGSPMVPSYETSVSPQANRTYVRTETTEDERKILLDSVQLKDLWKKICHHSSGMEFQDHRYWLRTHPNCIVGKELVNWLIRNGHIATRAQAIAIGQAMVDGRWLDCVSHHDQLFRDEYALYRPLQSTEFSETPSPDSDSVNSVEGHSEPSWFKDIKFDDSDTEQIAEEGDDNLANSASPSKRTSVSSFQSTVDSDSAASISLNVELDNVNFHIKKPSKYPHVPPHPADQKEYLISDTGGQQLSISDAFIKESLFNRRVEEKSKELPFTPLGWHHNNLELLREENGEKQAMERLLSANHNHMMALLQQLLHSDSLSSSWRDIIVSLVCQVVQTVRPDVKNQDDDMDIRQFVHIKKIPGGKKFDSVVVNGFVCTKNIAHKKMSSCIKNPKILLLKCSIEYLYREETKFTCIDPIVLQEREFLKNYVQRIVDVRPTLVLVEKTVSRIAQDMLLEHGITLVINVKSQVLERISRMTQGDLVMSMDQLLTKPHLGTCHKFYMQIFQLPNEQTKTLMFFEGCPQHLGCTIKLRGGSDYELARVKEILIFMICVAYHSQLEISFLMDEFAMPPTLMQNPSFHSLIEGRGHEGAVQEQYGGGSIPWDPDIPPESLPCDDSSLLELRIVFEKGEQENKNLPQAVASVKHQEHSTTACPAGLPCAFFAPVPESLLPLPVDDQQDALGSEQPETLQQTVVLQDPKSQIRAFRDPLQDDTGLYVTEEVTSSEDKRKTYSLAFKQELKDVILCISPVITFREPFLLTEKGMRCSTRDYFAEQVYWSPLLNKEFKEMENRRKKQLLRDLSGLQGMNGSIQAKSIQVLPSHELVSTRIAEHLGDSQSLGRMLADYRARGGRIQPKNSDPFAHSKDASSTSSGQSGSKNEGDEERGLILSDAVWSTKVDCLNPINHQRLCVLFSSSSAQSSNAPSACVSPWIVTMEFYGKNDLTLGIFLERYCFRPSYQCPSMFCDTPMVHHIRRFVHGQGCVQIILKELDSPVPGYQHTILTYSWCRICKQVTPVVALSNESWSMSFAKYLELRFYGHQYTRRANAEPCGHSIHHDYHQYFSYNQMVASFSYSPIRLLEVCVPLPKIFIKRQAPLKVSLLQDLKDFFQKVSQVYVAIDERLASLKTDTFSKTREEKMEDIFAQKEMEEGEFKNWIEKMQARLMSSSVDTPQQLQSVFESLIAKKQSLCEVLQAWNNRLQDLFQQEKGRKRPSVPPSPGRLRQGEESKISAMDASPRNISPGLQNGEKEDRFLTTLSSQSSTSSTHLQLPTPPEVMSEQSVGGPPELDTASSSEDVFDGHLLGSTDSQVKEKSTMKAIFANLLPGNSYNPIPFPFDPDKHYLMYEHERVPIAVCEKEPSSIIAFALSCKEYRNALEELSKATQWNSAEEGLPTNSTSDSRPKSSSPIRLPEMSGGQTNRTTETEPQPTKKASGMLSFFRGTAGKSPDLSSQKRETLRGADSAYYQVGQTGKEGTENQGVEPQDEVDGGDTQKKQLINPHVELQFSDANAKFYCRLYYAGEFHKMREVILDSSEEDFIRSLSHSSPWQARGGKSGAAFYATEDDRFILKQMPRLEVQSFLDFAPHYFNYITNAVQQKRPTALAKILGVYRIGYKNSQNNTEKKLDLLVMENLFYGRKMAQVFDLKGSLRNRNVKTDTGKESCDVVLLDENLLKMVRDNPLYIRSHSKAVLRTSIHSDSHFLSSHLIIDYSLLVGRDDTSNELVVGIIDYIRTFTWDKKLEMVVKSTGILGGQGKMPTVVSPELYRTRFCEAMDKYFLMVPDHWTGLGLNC

This experiment addresses T1, Full length human recombinant PIKFYVE (Homo sapiens, UniProt Q9Y2I7).
T1 construct: Full length human recombinant PIKFYVE; purchased Carna Biosciences (Kobe, Japan); host or cells: baculovirus expression system
The experiment can be described thus: Inhibition of PIKfyve (microfluidic electrophoresis kinase assay, PI3P/PS substrate). The settings on record: 12 concentrations. The class given is biochemical. On the procedure:
Full length human recombinant PIKFYVE expressed in baculovirus expression system as N-terminal GST-fusion protein (265 kDa) was obtained from Carna Biosciences (Kobe, Japan). The kinase substrate was prepared by mixing and sonicating fluorescently-labeled phosphatidylinositol 3-phosphate (PI3P) with phospho-L-serine (PS) at a 1:10 ratio in 50 mM HEPES buffer pH 7.5.
The kinase reactions were assembled in 384-well plates (Greiner) in a total volume of […] as follows. Kinase protein was pre-diluted in an assay buffer comprising 25 mM HEPES, pH 7.5, 1 mM DTT, 2.5 mM MgCl2, and 2.5 mM MnCl2, and 0.005% Triton X-100, and dispensed into a 384-well plate (10 μL per well). Test compounds were serially pre-diluted in DMSO and added to the protein samples by acoustic dispensing (Labcyte Echo). The concentration of DMSO was equalized to 1% in all samples. All test compounds were tested at 12 concentrations. Apilimod was used as a reference compound and was tested in identical manner in each assay plate. Control samples (0%-inhibition, in the absence of inhibitor, DMSO only) and 100%-inhibition (in the absence of enzyme) were assembled in replicates of four and were used to calculate %-inhibition in the presence of compounds. The reactions were initiated by addition of 10 μL of 2×PI3P/PS substrate supplemented with ATP. The final concentration of enzyme was 2 nM, the final concentration of ATP was […], and the final concentration of PI3P/PS substrate was 1 μM (PI3P). The kinase reactions were allowed to proceed for 3 h at room temperature. Following incubation, the reactions were quenched by addition of […] of termination buffer (100 mM HEPES, pH 7.5, 0.01% Triton X-100, 20 mM EDTA). Terminated plates were analyzed on a microfluidic electrophoresis instrument (Caliper LabChip® 3000, Caliper Life Sciences/Perkin Elmer). The change in the relative fluorescence intensity of the PI(3)P substrate and PI(3,5)P product peaks was measured. The activity in each test sample was determined as the product to sum ratio (PSR): P/(S+P), where P is the peak height of the product, and S is the peak height of the substrate. Percent inhibition (Pinh) was determined using the following equation:
Pinh=(PSR0% inh−PSRcompound)/(PSR0% inh−PSR100% inh)*100
in which PSRcompound is the product/sum ratio in the presence of compound, PSR0% inh is the product/sum ratio in the absence of compound, and the PSR100% inh is the product/sum ratio in the absence of the enzyme.
Regarding `O=C(NCC1COC1)c1cc2nc(-n3ccc(-c4ccccc4)n3)nc(N3CCOCC3)c2o1` [Compound 159, 4-morpholino-N-(oxetan-3-ylmethyl)-2-(3-phenylpyrazol-1-yl)furo[3,2-d]pyrimidine-6-carboxamide], the IC50 is 943 nM.

As to `O=C(NCC1CC1)c1cc2nc(Nc3cc(-c4ccccc4)[nH]n3)nc(N3CCOCC3)c2o1` [Compound 61, N-(cyclopropylmethyl)-4-morpholino-2-[(5-phenyl-1H-pyrazol-3-yl)amino]furo[3,2-d]pyrimidine-6-carboxamide, hydrogen chloride], the IC50 was found to be 2.5 nM.

Regarding `CN(C)C(=O)c1cc2nc(Nc3cc(-c4ccccc4)[nH]n3)nc(N3CCOCC3)c2o1` [Compound 137, N,N-dimethyl-4-morpholino-2-((5-phenyl-1H-pyrazol-3-yl)amino)furo[3,2-d]pyrimidine-6-carboxamide], the 50% inhibitory concentration (IC50) was 95 nM.

As for `Cc1cccc(-c2cnn(-c3nc(N4CCOCC4)c4oc(-c5cc(C)n(CCN6C(=O)C=CC6=O)n5)cc4n3)c2)c1` [Compound 202, 1-[2-[5-methyl-3-[4-morpholino-2-[4-(m-tolyl)pyrazol-1-yl]furo[3,2-d]pyrimidin-6-yl]pyrazol-1-yl]ethyl]pyrrole-2,5-dione], the half-inhibitory concentration (IC50) turned out to be 1.4 nM.

As to `CCN(C)C(=O)c1cc2nc(Nc3cc(-c4ccccc4)[nH]n3)nc(N3CCOCC3)c2o1` [Compound 57, N-ethyl-N-methyl-4-morpholino-2-[(5-phenyl-1H-pyrazol-3-yl)amino]furo[3,2-d]pyrimidine-6-carboxamide, hydrogen chloride], the IC50 was 37 nM.

Consider `c1ccc(-c2cc(Nc3nc(N4CCOCC4)c4oc(-c5cccnc5)cc4n3)[nH]n2)cc1` [Compound 29, 4-morpholino-N-(5-phenyl-1H-pyrazol-3-yl)-6-(3-pyridyl)furo[3,2-d]pyrimidin-2-amine, hydrogen chloride], for which the IC50 came out at 1 nM.

In the case of `c1ccc(-c2cnc(Nc3nc(N4CCOCC4)c4oc(-c5ccncc5)cc4n3)o2)cc1` [Compound 46, 4-morpholino-N-(5-phenyloxazol-2-yl)-6-(4-pyridyl)furo[3,2-d]pyrimidin-2-amine, hydrogen chloride], the IC50 turned out to be 107 nM.

For the compound `Cc1cccc(-c2ccn(-c3nc(N4CCOCC4)c4oc(-c5cnc(C)[nH]5)cc4n3)n2)c1` [Compound 212, 6-(2-methyl-1H-imidazol-5-yl)-4-morpholino-2-(3-(m-tolyl)-1H-pyrazol-1-yl)furo[3,2-d]pyrimidine], the half-inhibitory concentration (IC50) amounted to 2.3 nM.

With `Cc1cc(-c2cc(Nc3nc(N4CCOCC4)c4oc(-c5ccncc5)cc4n3)[nH]n2)ccn1` [Compound 22, N-(3-(2-methylpyridin-4-yl)-1H-pyrazol-5-yl)-4-morpholino-6-(pyridin-4-yl)furo[3,2-d]pyrimidin-2-amine hydrochloride], the IC50 is 27 nM.

As for `CN1CCCC(c2cc3nc(Nc4cc(-c5ccncc5)n[nH]4)nc(N4CCOCC4)c3o2)C1` (stereo not drawn) [Compound 37], the IC50 is not below 10000 nM.

Turning to `c1cc(-c2cc3nc(Nc4cc(CC5CCC5)n[nH]4)nc(N4CCOCC4)c3o2)ccn1` [Compound 71], the IC50 worked out at 79.8 nM.

Turning to `Cc1cc(-c2cc3nc(-n4ccc(-c5ccccc5)n4)nc(N4CCOCC4)c3o2)[nH]n1` [Compound 162, 6-(3-methyl-1H-pyrazol-5-yl)-4-morpholino-2-(3-phenylpyrazol-1-yl)furo[3,2-d]pyrimidine], the IC50 worked out at 17.8 nM.

Turning to `Clc1cc2nc(Nc3cc(-c4ccccc4)n[nH]3)nc(N3CCOCC3)c2o1` [Compound 11, 6-chloro-4-morpholino-N-(5-phenyl-1H-pyrazol-3-yl)furo[3,2-d]pyrimidin-2-amine hydrochloride], the IC50 amounted to 54.4 nM.

Take `Brc1cccc(-c2ccn(-c3nc(N4CCOCC4)c4oc(-c5ccccn5)cc4n3)n2)c1` [Compound 186, 2-[3-(3-bromophenyl)pyrazol-1-yl]-4-morpholino-6-(2-pyridyl)furo[3,2-d]pyrimidine]: the IC50 was found to be 6 nM.

`CONC(=O)c1cc2nc(Nc3cc(-c4ccccc4)[nH]n3)nc(N3CCOCC3)c2o1` [Compound 58, N-methoxy-4-morpholino-2-[(5-phenyl-1H-pyrazol-3-yl)amino]furo[3,2-d]pyrimidine-6-carboxamide, hydrogen chloride]: the IC50 was found to be 95 nM.

Consider `Cc1cncc(-c2cc(Nc3nc(N4CCOCC4)c4oc(-c5ccncc5)cc4n3)[nH]n2)c1` [Compound 23, N-[5-(5-methyl-3-pyridyl)-1H-pyrazol-3-yl]-4-morpholino-6-(4-pyridyl)furo[3,2-d]pyrimidin-2-amine, hydrogen chloride], for which the IC50 came to 195 nM.

In the case of `CONC(=O)c1cc2nc(-n3ccc(-c4cccc(C)c4)n3)nc(N3CCOCC3)c2o1` [Compound 99, N-methoxy-4-morpholino-2-(3-(m-tolyl)-1H-pyrazol-1-yl)fur[3,2-d]pyrimidine-6-carboxamide], the IC50 was determined as 78.3 nM.

`c1ccc(-c2ccn(-c3nc(N4CCOCC4)c4oc(-c5ncco5)cc4n3)n2)cc1` [Compound 214, 4-morpholino-6-oxazol-2-yl-2-(3-phenylpyrazol-1-yl)furo[3,2-d]pyrimidine]: the IC50 is 44.1 nM.

As for `NC(=O)c1cc2nc(Nc3cc(-c4ccccc4)n[nH]3)nc(N3CCOCC3)c2o1` [Compound 52, 4-morpholino-2-((3-phenyl-1H-pyrazol-5-yl)amino)furo[3,2-d]pyrimidine-6-carboxamide hydrochloride], the IC50 was determined as 47 nM.

Consider `Cc1c(-c2ccncc2)oc2c(N3CCOCC3)nc(-n3ccc(-c4ccccc4)n3)nc12` [Compound 181, 7-methyl-4-morpholino-2-(3-phenylpyrazol-1-yl)-6-(4-pyridyl)furo[3,2-d]pyrimidine], for which the IC50 was 59.4 nM.

As to `Cc1cc(Nc2nc(N3CCOCC3)c3oc(-c4ccncc4)cc3n2)[nH]n1` [Compound 5, N-(5-methyl-1H-pyrazol-3-yl)-4-morpholino-6-(4-pyridyl)furo[3,2-d]pyrimidin-2-amine, hydrogen chloride], the IC50 came out at 279 nM.

As for `Cc1cccc(-c2cc(Nc3nc(N4CCOCC4)c4oc(-c5ccncc5)cc4n3)[nH]n2)n1` [Compound 20, N-[5-(6-methyl-2-pyridyl)-1H-pyrazol-3-yl]-4-morpholino-6-(4-pyridyl)furo[3,2-d]pyrimidin-2-amine, hydrogen chloride], the IC50 was 9 nM.

With `Cc1cccc(-c2cc(Nc3nc(N4CCOCC4)c4oc(-c5cccnc5)cc4n3)[nH]n2)c1` [Compound 30, 4-morpholino-N-[5-(m-tolyl)-1H-pyrazol-3-yl]-6-(3-pyridyl)furo[3,2-d]pyrimidin-2-amine, hydrogen chloride], the IC50 turned out to be 0.5 nM.

`CNC(=O)c1cc2nc(Nc3cc(C4CC4)n[nH]3)nc(N3CCOCC3)c2o1` [Compound 78, 2-((3-cyclopropyl-1H-pyrazol-5-yl)amino)-N-methyl-4-morpholinofuro[3,2-d]pyrimidine-6-carboxamide hydrochloride]: the IC50 was 7850 nM.

As for `CN1CCCC(NC(=O)c2cc3nc(-n4cc(-c5ccccc5)cn4)nc(N4CCOCC4)c3o2)C1` (stereo not drawn) [Compound 169, N-(1-methyl-3-piperidyl)-4-morpholino-2-(4-phenylpyrazol-1-yl)furo[3,2-d]pyrimidine-6-carboxamide], the 50% inhibitory concentration (IC50) is 67.3 nM.

As to `COCCN(C)Cc1cc2nc(Nc3cc(-c4ccccc4)n[nH]3)nc(N3CCOCC3)c2o1` [Compound 17], the IC50 amounted to 303 nM.

`CN1CCC(c2cc3nc(Nc4cc(-c5ccccc5)n[nH]4)nc(N4CCOCC4)c3o2)CC1` [Compound 32]: the IC50 was 116 nM.

In the case of `Cc1ccccc1-c1cc(Nc2nc(N3CCOCC3)c3oc(-c4ccncc4)cc3n2)[nH]n1` [Compound 2, 4-morpholino-N-[5-(o-tolyl)-1H-pyrazol-3-yl]-6-(4-pyridyl)furo[3,2-d]pyrimidin-2-amine, hydrogen chloride], the IC50 was 64.8 nM.

For the compound `Clc1cccc(-c2ccn(-c3nc(N4CCOCC4)c4oc(-c5ccccn5)cc4n3)n2)c1` [Compound 185, 2-[3-(3-chlorophenyl)pyrazol-1-yl]-4-morpholino-6-(2-pyridyl)furo[3,2-d]pyrimidine], the IC50 amounted to 10.1 nM.

With `c1ccc(-c2cc(Nc3nc(N4CCOCC4)c4oc(-c5ccccn5)cc4n3)[nH]n2)cc1` [Compound 26, 4-morpholino-N-(5-phenyl-1H-pyrazol-3-yl)-6-(2-pyridyl)furo[3,2-d]pyrimidin-2-amine, hydrogen chloride], the IC50 was determined as 0.1 nM.

The term IC50 denotes the point on the concentration scale where inhibition reaches its midpoint.

The values are drawn from patent US20230146395A1, “Substituted Pyrimidines and Uses Thereof” (Verge Analytics, Inc., priority 2020, published 2023).
